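48-hour exposure; five concentrations; linearly interpolated endpoints. TGI is the concentration that stops growth completely.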
How the values were obtained:
Experiment in all cases: DTP human tumour cell line panel, 48 h
[1] = system: 786-0 renal
[2] = system: A498 renal
[3] = system: A549 NSCLC
[4] = system: ACHN renal
[5] = system: CAKI-1 renal
[6] = system: CCRF-CEM leukemia
[7] = system: COLO 205 colon
[8] = system: DLD-1 colon
[9] = system: DMS 114 small cell lung
[10] = system: DMS 273 small cell lung
[11] = system: EKVX NSCLC
[12] = system: HCC-2998 colon
[13] = system: HCT-116 colon
[14] = system: HCT-15 colon
[15] = system: HL-60(TB) leukemia
[16] = system: HOP-18 NSCLC
[17] = system: HOP-62 NSCLC
[18] = system: HOP-92 NSCLC
[19] = system: HT29 colon
[20] = system: IGROV1 ovarian
[21] = system: K-562 leukemia
[22] = system: KM12 colon
[23] = system: KM20L2 colon
[24] = system: LOX IMVI melanoma
[25] = system: LXFL 529 NSCLC
[26] = system: M14 melanoma
[27] = system: M19-MEL melanoma
[28] = system: MALME-3M melanoma
[29] = system: MOLT-4 leukemia
[30] = system: NCI-H23 lung
[31] = system: NCI-H460 lung
[32] = system: NCI-H522 lung
[33] = system: OVCAR-3 ovarian
[34] = system: OVCAR-4 ovarian
[35] = system: OVCAR-5 ovarian
[36] = system: OVCAR-8 ovarian
[37] = system: RPMI-8226 leukemia
[38] = system: RXF 393 renal
[39] = system: SF-268 CNS
[40] = system: SF-295 CNS
[41] = system: SK-MEL-2 melanoma
[42] = system: SK-MEL-28 melanoma
[43] = system: SK-MEL-5 melanoma
[44] = system: SK-OV-3 ovarian
[45] = system: SN12C renal
[46] = system: SNB-19 CNS
[47] = system: SNB-75 CNS
[48] = system: SR leukemia
[49] = system: SW-620 colon
[50] = system: TK-10 renal
[51] = system: U251 CNS
[52] = system: UACC-257 melanoma
[53] = system: UACC-62 melanoma
[54] = system: UO-31 renal
[55] = system: XF 498 CNS
[56] = system: BT-549 breast
[57] = system: DU-145 prostate
[58] = system: MCF7 breast
[59] = system: MDA-MB-231 breast
[60] = system: MDA-N
[61] = system: NCI-H226 lung
[62] = system: PC-3 prostate
[63] = system: SF-539 CNS
[64] = system: SNB-78 CNS
[65] = system: T-47D breast

In the case of `CSc1nc2nc(C)c(C)nc2c(=O)[nH]1`, the TGI [1] was over 100 µM, the TGI [2] was over 100 µM and the TGI [3] was over 100 µM. For the same molecule, the TGI [4] was over 100 µM, the TGI [5] was over 100 µM and the TGI [6] was over 100 µM. It also gave a TGI [7] of over 100 µM, a TGI [8] of over 100 µM and a TGI [9] of over 100 µM. It also gave a TGI [10] of over 100 µM, a TGI [11] of over 100 µM and a TGI [12] of over 100 µM. The TGI [13] was over 100 µM, the TGI [14] was over 100 µM and the TGI [15] was over 100 µM. It also gave a TGI [16] of over 100 µM, a TGI [17] of over 100 µM and a TGI [18] of over 100 µM. The TGI [19] was over 100 µM, the TGI [20] was over 100 µM and the TGI [21] was over 100 µM. It also gave a TGI [22] of over 100 µM, a TGI [23] of over 100 µM and a TGI [24] of over 100 µM. The TGI [25] was over 100 µM, the TGI [26] was over 100 µM and the TGI [27] was over 100 µM. The TGI [28] was over 100 µM, the TGI [29] was over 100 µM and the TGI [30] was over 100 µM. The TGI [31] was over 100 µM, the TGI [32] was over 100 µM and the TGI [33] was over 100 µM. It also gave a TGI [34] of over 100 µM, a TGI [35] of over 100 µM and a TGI [36] of over 100 µM. It also gave a TGI [37] of over 100 µM, a TGI [38] of over 100 µM and a TGI [39] of over 100 µM. For the same molecule, the TGI [40] was over 100 µM, the TGI [41] was over 100 µM and the TGI [42] was over 100 µM. The TGI [43] was over 100 µM, the TGI [44] was over 100 µM and the TGI [45] was over 100 µM. It also gave a TGI [46] of over 100 µM, a TGI [47] of over 100 µM and a TGI [48] of over 100 µM. For the same molecule, the TGI [49] was over 100 µM, the TGI [50] was over 100 µM and the TGI [51] was over 100 µM. The TGI [52] was over 100 µM, the TGI [53] was over 100 µM and the TGI [54] was over 100 µM. The TGI [55] was over 100 µM.
Molecule `Cc1cc(NC(=O)NC(=O)c2ccccc2[N+](=O)[O-])ccc1Oc1ncc(Cl)cn1` has a TGI [1] of 26.4 µM, a TGI [2] of 19.6 µM and a TGI [3] of over 100 µM. For the same molecule, the TGI [4] was 42.1 µM, the TGI [56] was 91.5 µM and the TGI [6] was over 100 µM. It also gave a TGI [7] of over 20 µM, a TGI [8] of 43.7 µM and a TGI [9] of over 100 µM. For the same molecule, the TGI [10] was 0.365 µM, the TGI [57] was over 100 µM and the TGI [11] was over 100 µM. The TGI [12] was 0.6 µM, the TGI [13] was 18 µM and the TGI [14] was over 100 µM. For the same molecule, the TGI [15] was 0.137 µM, the TGI [16] was 91.1 µM and the TGI [17] was 19.4 µM. The TGI [19] was 3.38 µM, the TGI [20] was 98.9 µM and the TGI [21] was over 100 µM. It also gave a TGI [22] of 13 µM, a TGI [23] of 0.44 µM and a TGI [24] of over 100 µM. It also gave a TGI [25] of 24.3 µM, a TGI [26] of 35.7 µM and a TGI [27] of over 100 µM. It also gave a TGI [28] of 43.8 µM, a TGI [58] of over 100 µM and a TGI [59] of 26.9 µM. It also gave a TGI [60] of 29.5 µM, a TGI [29] of over 100 µM and a TGI [61] of 12.8 µM. For the same molecule, the TGI [30] was over 80.5 µM, the TGI [31] was 18.8 µM and the TGI [32] was 0.201 µM. The TGI [33] was 1.34 µM, the TGI [34] was 31.3 µM and the TGI [35] was over 100 µM. The TGI [36] was over 37.9 µM, the TGI [62] was 94.5 µM and the TGI [37] was over 100 µM. For the same molecule, the TGI [38] was 0.147 µM, the TGI [39] was over 82.3 µM and the TGI [40] was 29.3 µM. The TGI [63] was 9.5 µM, the TGI [42] was 98 µM and the TGI [43] was 3.32 µM. For the same molecule, the TGI [44] was 24.1 µM, the TGI [45] was over 81.6 µM and the TGI [46] was over 66.2 µM. The TGI [47] was 1.59 µM, the TGI [64] was 62.6 µM and the TGI [49] was over 100 µM. The TGI [65] was over 100 µM, the TGI [50] was over 65.2 µM and the TGI [51] was 4.42 µM. The TGI [52] was over 100 µM, the TGI [53] was over 31.6 µM and the TGI [54] was 75.6 µM. For the same molecule, the TGI [55] was 17.9 µM.
